system: human genes; test: Editing efficiency of tested crRNAs / guide nucleic acids (Tables 7-10) detected in human cells; format: cell-based; details: Target Gene LAG3; tested crRNAs targeting human genes

| Substance | % Indel |
| --- | --- |
| gLAG3_6: spacer targeting LAG3, SEQ ID NO 153, GGGTGCATACCTGTCTGGCTG (chemistry not given here) | 52.4% |

same assay, conditions: Target Gene PD; tested crRNAs targeting human genes

| Substance | % Indel |
| --- | --- |
| gPD_23: spacer targeting PDCD1, SEQ ID NO 210, TCTGCAGGGACAATAGGAGCC (chemistry not given here) | 57.6% |

same assay, conditions: Target Gene PTPN6; tested crRNAs targeting human genes

| Substance | % Indel |
| --- | --- |
| gPTPN6_6: spacer targeting PTPN6, SEQ ID NO 249, TATGACCTGTATGGAGGGGAG (chemistry not given here) | 83.4% |
| gPTPN6_8 (guide AGGTGGATGATGGTGCCGTCG; chemistry not given here) | 3.5% |
| gPTPN6_9 (guide CCTGACGCTGCCTTCTCTAGG; chemistry not given here) | 0.8% |

same assay, conditions: Target Gene TIGIT; tested crRNAs targeting human genes

| Substance | % Indel |
| --- | --- |
| gTIGIT_1 (guide CCTGAGGCGAGGGGAGCCTGC; chemistry not given here) | 0.2% |
| gTIGIT_2: spacer targeting TIGIT, SEQ ID NO 302, AGGCCTTACCTGAGGCGAGGG (chemistry not given here) | 81.7% |
| gTIGIT_3 (guide GTCCTCTTCCCTAGGAATGAT; chemistry not given here) | 1.3% |
| gTIGIT_4 (guide TATTGTGCCTGTCATCATTCC; chemistry not given here) | 1% |
| gTIGIT_5 (guide TCTGCAGAAATGTTCCCCGTT; chemistry not given here) | 1.1% |
| gTIGIT_6 (guide CTCTGCAGAAATGTTCCCCGT; chemistry not given here) | 0.1% |
| gTIGIT_7 (guide TGCAGAGAAAGGTGGCTCTAT; chemistry not given here) | 6% |
| gTIGIT_8 (guide TGCCGTGGTGGAGGAGAGGTG; chemistry not given here) | 0.3% |
| gTIGIT_9 (guide TGGCCATTTGTAATGCTGACT; chemistry not given here) | 0.8% |
| gTIGIT_10 (guide TAATGCTGACTTGGGGTGGCA; chemistry not given here) | 1.6% |
| gTIGIT_11 (guide GGGTGGCACATCTCCCCATCC; chemistry not given here) | 9.7% |
| gTIGIT_12 (guide AAGGATGGGGAGATGTGCCAC; chemistry not given here) | 0.4% |
| gTIGIT_13 (guide AAGGATCGAGTGGCCCCAGGT; chemistry not given here) | 0.2% |
| gTIGIT_14 (guide TGCATCTATCACACCTACCCT; chemistry not given here) | 1.4% |
| gTIGIT_15 (guide TAGGACCTCCAGGAAGATTCT; chemistry not given here) | 0.4% |
| gTIGIT_16 (guide CTAGGACCTCCAGGAAGATTC; chemistry not given here) | 0.5% |

| Substance | % Indel |
| --- | --- |
| gTIGIT_17 (guide CTCCAGCAGGAATACCTGAGC; chemistry not given here) | 0.8% |
| gTIGIT_18 (guide GTCCTCCCTCTAGTGGCTGAG; chemistry not given here) | 72.4% |
| gTIGIT_19 (guide GAGCCATGGCCGCGACGCTGG; chemistry not given here) | 0.9% |
| gTIGIT_20 (guide TAGTCAACGCGACCACCACGA; chemistry not given here) | 0.1% |
| gTIGIT_21 (guide CTAGTCAACGCGACCACCACG; chemistry not given here) | 0.1% |
| gTIGIT_22 (guide TAGTTTGTTTGTTTTTAGAAG; chemistry not given here) | 0.6% |
| gTIGIT_23 (guide TTTGTTTTTAGAAGAAAGCCC; chemistry not given here) | 1% |
| gTIGIT_24 (guide TTTTTAGAAGAAAGCCCTCAG; chemistry not given here) | 0.4% |
| gTIGIT_25 (guide TAGAAGAAAGCCCTCAGAATC; chemistry not given here) | 1.2% |
| gTIGIT_26 (guide CACAGAATGGATTCTGAGGGC; chemistry not given here) | 0.3% |
| gTIGIT_27 (guide CTCCTGAGGTCACCTTCCACA; chemistry not given here) | 1.6% |
| gTIGIT_28 (guide CTGGGGGTGAGGGAGCACTGG; chemistry not given here) | 0.5% |
| gTIGIT_29 (guide TGCCTGGACACAGCTTCCTGG; chemistry not given here) | 0.3% |
| gTIGIT_30 (guide TGTAACTCAGGACATTGAAGT; chemistry not given here) | 0.5% |
| gTIGIT_31 (guide AATGTCCTGAGTTACAGAAGC; chemistry not given here) | 0.5% |

same assay, conditions: Target Gene TRAC; tested crRNAs targeting human genes

| Substance | % Indel |
| --- | --- |
| gTRAC089 (guide AACTCAGGGTTGAGAAAACAG; chemistry not given here) | 0.7% |
| gTRAC090 (guide ACTCAGGGTTGAGAAAACAGC; chemistry not given here) | 0.1% |

same assay, conditions: crRNA targeting TRBC1 + 2; value at TRBC1

| Substance | % Indel (TRBC1) |
| --- | --- |
| gTRBC1 + 2_1 (guide AGCCATCAGAAGCAGAGATCT; chemistry not given here) | 66.40% |

same assay, conditions: crRNA targeting TRBC1 + 2; value at TRBC2

| Substance | % Indel (TRBC2) |
| --- | --- |
| gTRBC1 + 2_1 (guide AGCCATCAGAAGCAGAGATCT; chemistry not given here) | 74.7% |

same assay, conditions: tested crRNAs targeting human genes; target gene as given (Table 10)

| Substance | % Indel |
| --- | --- |
| gCARD11_1: spacer targeting CARD11, SEQ ID NO 1388, TAGTACCGCTCCTGGAAGGTT (chemistry not given here) | 1.37% |
| gCD247_12: spacer targeting CD247, SEQ ID NO 89, CTAGCAGAGAAGGAAGAACCC (chemistry not given here) | 70.64% |
| gDHODH_1 (guide TTGCAGAAGCGGGCCCAGGAT; chemistry not given here) | 0.6% |
| gDHODH_2 (guide TTGCAGAAGCGGGCCCAGGAT; chemistry not given here) | 0.59% |
| gDHODH_3 (guide TATGCTGAACACCTGATGCCG; chemistry not given here) | 74.94% |
| gIL7R_3: spacer targeting IL7R, SEQ ID NO 1393, CAGGGGAGATGGATCCTATCT (chemistry not given here) | 87.87% |
| gLCK1_3: spacer targeting LCK, SEQ ID NO 1401, ACCCATCAACCCGTAGGGATG (chemistry not given here) | 16.21% |
| gPLCG1_2: spacer targeting PLCG1, SEQ ID NO 1403, CCTTTCTGCGCTTCGTGGTGT (chemistry not given here) | 5.14% |
| gTRAC006: spacer targeting TRAC, SEQ ID NO 988, TGAGGGTGAAGGATAGACGCT (chemistry not given here) | 81.8% |
| gTRAC084 (guide GACTTTTCCCAGCTGACAGAT; chemistry not given here) | 1.6% |
| gTRAC085 (guide TCAACCCTGAGTTAAAACACA; chemistry not given here) | 0.5% |
| gTRAC086 (guide CTCAACCCTGAGTTAAAACAC; chemistry not given here) | 0.2% |
| gTRAC087 (guide TCCTGAAGGTAGCTGTTTTCT; chemistry not given here) | 0.2% |
| gTRAC088 (guide GTCCTGAAGGTAGCTGTTTTC; chemistry not given here) | 0.1% |
| gTRBC2_7 (guide CCCTGTTTTCTTTCAGACTGT; chemistry not given here) | 0.09% |
| gTRBC2_8 (guide CTTTCAGACTGTGGCTTCACC; chemistry not given here) | 0.24% |
| gTRBC2_9 (guide TTTCAGACTGTGGCTTCACCT; chemistry not given here) | 0.24% |
| gTRBC2_10 (guide CAGACTGTGGCTTCACCTCCG; chemistry not given here) | 0.16% |

| Substance | % Indel |
| --- | --- |
| gTRBC2_11 (guide AGACTGTGGCTTCACCTCCGG; chemistry not given here) | 19.97% |
| gTRBC2_12: spacer targeting TRBC2, SEQ ID NO 1379, CCGGAGGTGAAGCCACAGTCT (chemistry not given here) | 33.14% |
| gTRBC2_13 (guide TCAACAGAGTCTTACCAGCAA; chemistry not given here) | 1.2% |
| gTRBC2_14 (guide CCAGCAAGGGGTCCTGTCTGC; chemistry not given here) | 6.69% |
| gTRBC2_15 (guide CTAGGGAAGGCCACCTTGTAT; chemistry not given here) | 21.74% |
| gTRBC2_16 (guide TATGCCGTGCTGGTCAGTGCC; chemistry not given here) | 0.2% |
| gTRBC2_17 (guide CCATGGCCATCAGCACGAGGG; chemistry not given here) | 1.75% |
| gTRBC2_18 (guide CCTAGCAAGATCTCATAGAGG; chemistry not given here) | 0.37% |
| gTRBC2_19 (guide CACAGGTCAAGAGAAAGGATT; chemistry not given here) | 1.58% |
| gTRBC2_21 (guide GAGCTAGCCTCTGGAATCCTT; chemistry not given here) | 11.89% |
| gTUBB_1 (guide AACCATGAGGGAAATCGTGCA; chemistry not given here) | 2.61% |
| gTUBB_2 (guide ACCATGAGGGAAATCGTGCAC; chemistry not given here) | 68.4% |
| gTUBB_3 (guide TTCTCTGTAGGTGGCAAATAT; chemistry not given here) | 18.67% |
| gU6_1 (guide GTCCTTTCCACAAGATATATA; chemistry not given here) | 68.1% |
| gU6_2 (guide GATTTCTTGGCTTTATATATC; chemistry not given here) | 0.71% |
| gU6_3 (guide TTGGCTTTATATATCTTGTGG; chemistry not given here) | 2.83% |
| gU6_4 (guide GCTTTATATATCTTGTGGAAA; chemistry not given here) | 0.37% |

Reference: patent US20250179481A1, “COMPOSITIONS AND METHODS FOR TARGETING, EDITING, OR MODIFYING GENES” (Celyntra Therapeutics SA, priority 2021, published 2025)
